Data published in patent US9663458B2, “Diaminoguanidine derivatives and application thereof in preparation of animal growth promoters used in feed” (priority 2014, dated 2017).
Several values for one entry are separate records, joined by “and”; a condition that tells them apart may be missing. Equal entries are not always repeated. Where two headings read alike, the source gives them in different places.

Assays:
Clostridium perfringens = assay: microbe, parasite or virus in culture; format: cell-based
[1] = system: yellow feather broilers (female); assay: Feeding trial (broilers); format: in vivo; conditions: 20 ppm in feed, 30 days; for Feed conversion efficiency: controls 2.15, 2.11, hydrochloride; for Average daily weight gain: controls 23.7, hydrochloride; for Average weight gain: controls 713, 712, hydrochloride; for Consumption: group of 50, controls 76.6, 75.2, hydrochloride
Description: 400 1-day-aged, healthy, fast-grown yellow feather broilers (female) in the same growing state and similar in weight were randomly divided into eight groups according to table 5, 50 broilers in each group. Broilers in each group were fed with different dosage of the IST_007 series compounds.

cherry valley ducks = assay: Feeding trial (ducks); format: in vivo; conditions: 20 ppm in basal diet, 30 days; for Average feed conversion efficiency: control 2.16; for Average weight gain: control 55.8
Description: 800 1-day-old cherry valley ducks were divided into 8 groups, 100 ducks in each group. […] The compounds of IST_007 series can substantially enhance the productivity of the ducks, concluded from the results.

[2] = system: Duroc-YorkShire-Landrace crossbred lean pigs; assay: Feeding trial (pigs); conditions: 25 mg/kg mixed with feed, 14 days; for Average daily weight gain: controls 0.44, 0.43, hydrochloride; for Feed conversion efficiency: controls 2.13, 2.11, hydrochloride; for Average weight gain: controls 6.2, 6.1, hydrochloride; for Consumption: group of 15, controls 198.3, 192.9, hydrochloride
[3] = read-out: Minimum inhibitory concentration (MIC), strain RA-FS-1308-1, in vitro
[4] = read-out: Minimum inhibitory concentration (MIC), strain RA-GD-1211-D, in vitro
[5] = read-out: Minimum inhibitory concentration (MIC), strain RA-HN-1211-C, in vitro
[6] = read-out: Minimum inhibitory concentration (MIC), strain CP-JM-1208-H, in vitro
[7] = read-out: Minimum inhibitory concentration (MIC), strain CP-JM-1210-B, in vitro
[8] = read-out: Minimum inhibitory concentration (MIC), strain CP-JM-1210-E, in vitro

CCCCCCCCOc1ccc(C=NNC(=N)NN=Cc2ccc(OCCCCCCCC)cc2)cc1.Cl [IST_007_020, 1,3-bis[(4-octoxybenzylidene)amino]guanidine hydrochloride]
MIC (Riemerella anatipestifer; [3]): > 200 mg/L
MIC (Riemerella anatipestifer; [4]): > 200 mg/L
MIC (Riemerella anatipestifer; [5]): > 200 mg/L
MIC (Clostridium perfringens; [6]): > 200 mg/L
MIC (Clostridium perfringens; [7]): > 200 mg/L
MIC (Clostridium perfringens; [8]): > 200 mg/L

CCCCOc1ccc(C=NNC(=N)NN=Cc2ccc(OCCCC)cc2)cc1.Cl [IST_007_005, 1,3-bis[(4-butoxybenzylidene)amino]guanidine hydrochloride]
Survival rate (%) [1]: 100%
Feed conversion efficiency [1]: 1.86 and 1.84
Average daily weight gain [1]: 26.5 g and 26.2 g
Average weight gain [1]: 796 g and 787 g
Consumption [1]: 74.1 kg and 72.5 kg
MIC (Riemerella anatipestifer; [3]): 1.56 mg/L
MIC (Riemerella anatipestifer; [4]): 1.56 mg/L
MIC (Riemerella anatipestifer; [5]): 1.56 mg/L
Survival rate (%) (cherry valley ducks): 100%
Average feed conversion efficiency (cherry valley ducks): 2.07
Average weight gain (cherry valley ducks): 62.4
MIC (Clostridium perfringens; [6]): 12.5 mg/L
MIC (Clostridium perfringens; [7]): 0.78 mg/L
MIC (Clostridium perfringens; [8]): 25 mg/L

CCC(CC)Oc1ccc(C=NNC(=N)NN=Cc2ccc(OC(CC)CC)cc2)cc1.Cl [IST_007_023, 1,3-bis[[4-(3-pentoxy)benzylidene]amino]guanidine hydrochloride]
MIC (Riemerella anatipestifer; [3]): 1.56 mg/L
MIC (Riemerella anatipestifer; [4]): 0.78 mg/L
MIC (Riemerella anatipestifer; [5]): 1.56 mg/L
Survival rate (%) (cherry valley ducks): 100%
Average feed conversion efficiency (cherry valley ducks): 2.05
Average weight gain (cherry valley ducks): 62.4
MIC (Clostridium perfringens; [6]): 12.5 mg/L
MIC (Clostridium perfringens; [7]): 12.5 mg/L
MIC (Clostridium perfringens; [8]): 12.5 mg/L

CCOc1ccc(C=NNC(=N)NN=Cc2ccc(OCC)cc2)cc1.Cl [IST_007_002, 1,3-bis[(4-ethoxybenzylidene)amino]guanidine hydrochloride]
MIC (Riemerella anatipestifer; [3]): > 100 mg/L
MIC (Riemerella anatipestifer; [4]): > 100 mg/L
MIC (Riemerella anatipestifer; [5]): > 100 mg/L
MIC (Clostridium perfringens; [6]): > 100 mg/L
MIC (Clostridium perfringens; [7]): 0.2 mg/L
MIC (Clostridium perfringens; [8]): > 100 mg/L

COc1ccc(/C=N/NC(=N)N/N=C/c2ccc(OC)cc2)cc1.Cl [IST_007_001, 1,3-bis[(4-methoxybenzylidene)amino]guanidine hydrochloride]
Survival rate (%) [1]: 100%
Feed conversion efficiency [1]: 1.88 and 1.91
Average daily weight gain [1]: 25.5 g and 25.8 g
Average weight gain [1]: 764 g and 775 g
Consumption [1]: 71.7 kg and 73.8 kg
MIC (Riemerella anatipestifer; [3]): 6.25 mg/L
MIC (Riemerella anatipestifer; [4]): 3.13 mg/L
MIC (Riemerella anatipestifer; [5]): 3.13 mg/L
Survival rate (%) (cherry valley ducks): 100%
Average feed conversion efficiency (cherry valley ducks): 2.01
Average weight gain (cherry valley ducks): 62.1
MIC (Clostridium perfringens; [6]): 12.5 mg/L
MIC (Clostridium perfringens; [7]): 1.56 mg/L
MIC (Clostridium perfringens; [8]): 50 mg/L

CCCCCOc1ccc(C=NNC(=N)NN=Cc2ccc(OCCCCC)cc2)cc1.Cl [IST_007_019, 1,3-bis[(4-pentoxybenzylidene)amino]guanidine hydrochloride]
MIC (Riemerella anatipestifer; [3]): > 200 mg/L
MIC (Riemerella anatipestifer; [4]): 0.39 mg/L
MIC (Riemerella anatipestifer; [5]): > 200 mg/L
MIC (Clostridium perfringens; [6]): > 200 mg/L
MIC (Clostridium perfringens; [7]): > 200 mg/L
MIC (Clostridium perfringens; [8]): > 200 mg/L

Cl.N=C(NN=Cc1ccc(OCc2ccccc2)cc1)NN=Cc1ccc(OCc2ccccc2)cc1 [IST_007_025, 1,3-bis[(4-benzyloxybenzylidene)amino]guanidine hydrochloride]
MIC (Riemerella anatipestifer; [3]): > 200 mg/L
MIC (Riemerella anatipestifer; [4]): 0.39 mg/L
MIC (Riemerella anatipestifer; [5]): > 200 mg/L
MIC (Clostridium perfringens; [6]): > 200 mg/L
MIC (Clostridium perfringens; [7]): 100 mg/L
MIC (Clostridium perfringens; [8]): > 200 mg/L

Cl.N=C(NN=Cc1ccc(OC2CCCC2)cc1)NN=Cc1ccc(OC2CCCC2)cc1 [IST_007_024, 1,3-bis[(4-cyclopentoxybenzylidene)amino]guanidine hydrochloride]
MIC (Riemerella anatipestifer; [3]): 0.39 mg/L
MIC (Riemerella anatipestifer; [4]): 0.78 mg/L
MIC (Riemerella anatipestifer; [5]): 0.39 mg/L
Survival rate (%) (cherry valley ducks): 100%
Average feed conversion efficiency (cherry valley ducks): 2.09
Average weight gain (cherry valley ducks): 63.1
MIC (Clostridium perfringens; [6]): 1.56 mg/L
MIC (Clostridium perfringens; [7]): 1.56 mg/L
MIC (Clostridium perfringens; [8]): 3.13 mg/L

CCC(C)Oc1ccc(C=NNC(=N)NN=Cc2ccc(OC(C)CC)cc2)cc1.Cl (centres unmarked) [IST_007_022, 1,3-bis[(4-sec-butoxybenzylidene)amino]guanidine hydrochloride]
MIC (Riemerella anatipestifer; [3]): 1.56 mg/L
MIC (Riemerella anatipestifer; [4]): 0.2 mg/L
MIC (Riemerella anatipestifer; [5]): 1.56 mg/L
Survival rate (%) (cherry valley ducks): 100%
Average feed conversion efficiency (cherry valley ducks): 2.08
Average weight gain (cherry valley ducks): 61.3
MIC (Clostridium perfringens; [6]): 12.5 mg/L
MIC (Clostridium perfringens; [7]): 12.5 mg/L
MIC (Clostridium perfringens; [8]): 12.5 mg/L

CC(C)Oc1ccc(C=NNC(=N)NN=Cc2ccc(OC(C)C)cc2)cc1.Cl [IST_007_003, 1,3-bis[(4-isopropoxybenzylidene)amino]guanidine hydrochloride]
Survival rate (%) [1]: 100%
Feed conversion efficiency [1]: 1.86 and 1.82
Average daily weight gain [1]: 26.3 g and 26.5 g
Average weight gain [1]: 791 g and 795 g
Consumption [1]: 73.7 kg and 72.3 kg
MIC (Riemerella anatipestifer; [3]): 1.56 mg/L
MIC (Riemerella anatipestifer; [4]): 1.56 mg/L
MIC (Riemerella anatipestifer; [5]): 1.56 mg/L
Average daily weight gain [2]: 0.56 kg/day and 0.58 kg/day
Feed conversion efficiency [2]: 1.84 and 1.65
Average weight gain [2]: 7.8 kg and 8.2 kg
Consumption [2]: 215.3 kg and 203.4 kg
Survival rate (%) (cherry valley ducks): 100%
Average feed conversion efficiency (cherry valley ducks): 2.03
Average weight gain (cherry valley ducks): 63.6
MIC (Clostridium perfringens; [6]): 12.5 mg/L
MIC (Clostridium perfringens; [7]): 3.13 mg/L
MIC (Clostridium perfringens; [8]): 12.5 mg/L

CCCOc1ccc(C=NNC(=N)NN=Cc2ccc(OCCC)cc2)cc1.Cl [IST_007_028, 1,3-bis[(4-propoxybenzylidene)amino]guanidine hydrochloride]
MIC (Riemerella anatipestifer; read-out: Minimum inhibitory concentration (MIC)): 1.56 mg/L
MIC (Riemerella anatipestifer; [4]): 0.39 mg/L
MIC (Riemerella anatipestifer; [5]): 0.39 mg/L
Average daily weight gain [2]: 0.55 kg/day and 0.52 kg/day
Feed conversion efficiency [2]: 1.75 and 1.85
Average weight gain [2]: 7.7 kg and 7.3 kg
Consumption [2]: 201.3 kg and 202.5 kg
Survival rate (%) (cherry valley ducks): 100%
Average feed conversion efficiency (cherry valley ducks): 2.04
Average weight gain (cherry valley ducks): 61.6
MIC (Clostridium perfringens; [6]): 1.56 mg/L
MIC (Clostridium perfringens; [7]): 1.56 mg/L
MIC (Clostridium perfringens; [8]): 1.56 mg/L
